System: Eschericia coli strain ATCC25922
Assay: standard microdilution assay to determine minimum inhibitory concentrations (MICs)
Type: cell-based
Details: Escherichia coli, read-out: E. coli ATCC25922 MIC
Experimental: Minimum inhibitory concentrations (MICs) are determined by the microdilution method, typically in a final volume of 100 microliters, according to protocols outlined by The Clinical and Laboratory Standards Institute [CLSI; formerly the National Committee for Clinical Laboratory Standards (NCCLS)]. See CLSI: Methods for dilution antimicrobial susceptibility tests for bacteria that grow aerobically; approved standard-fifth edition. Wayne, Pa.: NCCLS; 2000. The assays can be also be performed in microtiter trays according to conventional methodologies as published by the CLSI. See CLSI. Methods for Dilution Antimicrobial Susceptibility Tests for Bacteria That Grow Aerobically; Approved Standard-Seventh Edition. CLSI Document M7-A7 [ISBN 1-56238-587-9] CLSI, 940 West Valley Road, Suite 1400, Wayne Pa. 19087-1898 USA, 2006).
The compounds of the present invention were tested for antimicrobial activity. The compounds were run against Eschericia coli strain ATCC25922 using a standard microdilution assay to determine minimum inhibitory concentrations (MICs). […] A “N/A” means that data is unavailable. It will be recognized by one skilled in the art that the compounds can be assessed against other bacterial organisms and that the presentation of data for activity against Eschericia coli is illustrative and in no way is intended to limit the scope of the present invention. The compounds of the present invention can be assayed against a range of other microorganisms depending upon the performance activity desired to be gathered. Furthermore, the “+”, “−”, and “N/A” representation and the selection of a cutoff value of 16 micrograms/ml is also illustrative and in no way is intended to limit the scope of the present invention.

Structure (SMILES) | MIC
N=C(N)NCCCN1CCC(n2cc3c(nc2=O)Nc2cc(C(=O)NCCCN4CCCC4=O)ccc2O3)CC1 [Compound 674] | > 16 µg/mL
N=C(N)NCCCNC1CCC(n2cc3c(nc2=O)Nc2cc(C4CCN(C(=O)C5(N)CCCC5)CC4)ccc2O3)CC1 (stereo not drawn) [Compound 783] | < 16 µg/mL
N=C(N)NCCCNC1CCC(n2cc3c(nc2=O)Nc2cc(C4CCN(C(=O)CN(Cc5ccc(F)c(F)c5)C5CCNCC5)CC4)ccc2O3)CC1 (stereo not drawn) [Compound 753] | < 16 µg/mL
N=C(N)NCCCN1CCC(n2cc3c(nc2=O)Nc2cc(C(=O)Nc4ccc(F)cc4F)ccc2O3)CC1 [Compound 656] | > 16 µg/mL
N=C(N)NCCCN1CCC(n2cc3c(nc2=O)Nc2cc(C4CCN(C(=O)CNC(=N)N)CC4)ccc2O3)CC1 [Compound 715] | < 16 µg/mL
N=C(N)NCCCN1CCC(n2cc3c(nc2=O)Nc2ccccc2O3)CC1 [Compound 529] | > 16 µg/mL
NCCCCN1CCCC(n2cc3c(nc2=O)Nc2ccccc2O3)CC1 (stereo not drawn) [Compound 604] | > 16 µg/mL
NCCCNC1CCC(n2cc3c(nc2=O)Nc2cc(C4CCN(C(=O)CN(Cc5ccc(F)c(F)c5)C5CCNCC5)CC4)ccc2O3)CC1 (stereo not drawn) [Compound 754] | < 16 µg/mL
N=C(N)NCCCNC1CCC(n2cc3c(nc2=O)Nc2cc(-c4ccc(C(F)(F)F)nc4)ccc2O3)CC1 (stereo not drawn) [Compound 671] | > 16 µg/mL
N=C(N)NCCCN1CCCC(n2cc3c(nc2=O)Nc2cc(-c4ccc(N5CCOCC5)cc4)ccc2O3)CC1 (stereo not drawn) [Compound 664] | > 16 µg/mL
N#Cc1cccc(-c2ccc3c(c2)Nc2nc(=O)n(C4CCCN(CCCNC(=N)N)CC4)cc2O3)c1 (stereo not drawn) [Compound 676] | > 16 µg/mL
N=C(N)NCCCCCN1CC[C@@H](n2cc3c(nc2=O)Nc2ccccc2O3)C1 [Compound 575] | > 16 µg/mL
N=C(N)NCCCN1CCC(n2cc3c(nc2=O)Nc2cc(C(=O)NCCc4nc5ccccc5[nH]4)ccc2O3)CC1 [Compound 641] | > 16 µg/mL
N=C(N)NCCCN1CCC(n2cc3c(nc2=O)Nc2cc(C4CCN(C(=O)Nc5ccc(F)c(Cl)c5)CC4)ccc2O3)CC1 [Compound 730] | > 16 µg/mL
N=C(N)NCCCNC1CCC(n2cc3c(nc2=O)Nc2cc(C(=O)NCCc4c[nH]cn4)ccc2O3)CC1 (stereo not drawn) [Compound 763] | > 16 µg/mL
COc1ccc(-c2ccc3c(c2)Nc2nc(=O)n(C4CCN(CCCN)CC4)cc2O3)cc1F [Compound 615] | > 16 µg/mL
N=C(N)NCCCN1CCCC(n2cc3c(nc2=O)Nc2cc(C(=O)Nc4ccc(F)cc4F)ccc2O3)CC1 (stereo not drawn) [Compound 657] | > 16 µg/mL
O=c1nc2c(cn1C1CCNCC1)Oc1ccc(CCc3cccc(F)c3)cc1N2 [Compound 579] | > 16 µg/mL
NCCCNCc1ccc(-c2cn3c(=O)cc(-c4cc(F)c(F)cc4F)[nH]c3nc2=O)cc1 [Compound 362] | > 16 µg/mL

Structure (SMILES) | MIC
NCCCNCc1ccc(-n2cc3c(nc2=O)Nc2ccc(Br)cc2O3)cc1 [Compound 442] | > 16 µg/mL
N=C(N)NCCCN1CCC(n2cc3c(nc2=O)Nc2cc(C4CCN(C(=O)Nc5cc(F)c(F)cc5F)CC4)ccc2O3)CC1 [Compound 782] | > 16 µg/mL
N=C(N)NCCCN1CCC(n2cc3c(nc2=O)Nc2cc(C(=O)NCCN4CCOCC4)ccc2O3)CC1 [Compound 669] | > 16 µg/mL
COc1ccc(-c2cc(=O)n3cc(-c4ccc(CNCCCN)cc4)c(=O)nc3[nH]2)cc1 [Compound 378] | > 16 µg/mL
Cn1cnc(S(=O)(=O)N2CCC(c3ccc4c(c3)Nc3nc(=O)n(C5CCC(NCCCNC(=N)N)CC5)cc3O4)CC2)c1 (stereo not drawn) [Compound 750] | > 16 µg/mL
NCCCNC1CCC(n2cc3c(nc2=O)Nc2cc(C(=O)NCCN4CCNCC4)ccc2O3)CC1 (stereo not drawn) [Compound 740] | < 16 µg/mL
N=C(N)NCCCN1CCC(n2cc3c(nc2=O)Nc2cc(C(=O)NCC(F)(F)F)ccc2O3)CC1 [Compound 639] | > 16 µg/mL
N=C(N)NCCCN1CCCC(n2cc3c(nc2=O)Nc2cc(C4CCN(C(=O)C5(N)CCCC5)CC4)ccc2O3)CC1 (stereo not drawn) [Compound 777] | < 16 µg/mL
NCCCn1c(-c2ccc(F)cc2)cn2c(=O)c(C3=CCNCC3)cnc12 [Compound 570] | > 16 µg/mL
NCCCNCc1ccc(-c2cn3c(=O)cc(-c4ccc(Cl)c(Cl)c4)[nH]c3nc2=O)cc1 [Compound 390] | > 16 µg/mL
O=c1nc2[nH]c(-c3ccccc3F)cc(=O)n2cc1I [Compound 375] | > 16 µg/mL
N=C(N)NCCCN1CCC(n2cc3c(nc2=O)Nc2cc(-c4ccc(C(F)(F)F)nc4)ccc2O3)CC1 [Compound 690] | > 16 µg/mL
NCCCNCc1ccc(-c2cn3c(=O)cc(-c4ccccc4F)[nH]c3nc2=O)cc1 [Compound 360] | > 16 µg/mL
O=c1nc2c(cn1C1CCNCC1)Oc1ccccc1N2 [Compound 578] | > 16 µg/mL
N=C(N)NCCCNC1CCC(n2cc3c(nc2=O)Nc2cc(C4CCN(C(=O)CNC(=N)N)CC4)ccc2O3)CC1 (stereo not drawn) [Compound 752] | < 16 µg/mL
NCCCNCc1ccc(-c2cn3c(=O)cc(-c4ccc(C(F)(F)F)cc4)[nH]c3nc2=O)cc1 [Compound 391] | > 16 µg/mL
COC(=O)c1ccc2c(c1)Nc1nc(=O)n(C3CCN(CCCN)CC3)cc1O2 [Compound 606] | > 16 µg/mL
NCCCNCc1ccc(-n2cc3c(nc2=O)Nc2cc(Br)ccc2O3)cc1 [Compound 396] | > 16 µg/mL
N=C(N)NCCCN1CCC(n2cc3c(nc2=O)Nc2cc(C(=O)Nc4ccccc4OC(F)(F)F)ccc2O3)CC1 [Compound 675] | > 16 µg/mL

More lines, now with the values ahead:

MIC | Structure (SMILES)
> 16 µg/mL | O=c1nc2c(cn1C1CCCNCC1)Oc1ccc(CNCCCN3CCNCC3)cc1N2 (stereo not drawn) [Compound 920]
< 16 µg/mL | N=C(N)NCCCN1CCCC(n2cc3c(nc2=O)Nc2cc(C4CCN(C(N)=O)CC4)ccc2O3)CC1 (stereo not drawn) [Compound 833]
< 16 µg/mL | NCCCN(CCCN)C1CCC(n2cc3c(nc2=O)Nc2cc(C4CCNCC4)ccc2O3)CC1 (stereo not drawn) [Compound 1244]
> 16 µg/mL | NCCCN1CCCC(n2cc3c(nc2=O)Nc2cc(C(=O)N4CCC[C@H](N)C4)ccc2O3)CC1 (stereo partly drawn) [Compound 870]
> 16 µg/mL | O=C(NCCCN1CCNCC1)c1ccc2c(c1)Nc1nc(=O)n(CCO)cc1O2 [Compound 858]
> 16 µg/mL | CN(C)CCCOc1cccc2c1Nc1nc(=O)n(C3CCC(CN)CC3)cc1O2 (stereo not drawn) [Compound 1421]
> 16 µg/mL | NCC1CCC(n2cc3c(nc2=O)Nc2cc(C4CCNCC4)ccc2O3)CC1 (stereo not drawn) [Compound 1369]
> 16 µg/mL | N[C@@H]1CCCN(C(=O)c2ccc3c(c2)Nc2nc(=O)n(C4CCCNCC4)cc2O3)C1 (stereo partly drawn) [Compound 908]
< 16 µg/mL | NCCCNCC1CCC(n2cc3c(nc2=O)Nc2cc(C4CCNCC4)ccc2O3)CC1 (stereo not drawn) [Compound 1269]
> 16 µg/mL | COc1cccc2c1Nc1nc(=O)n([C@H]3CC[C@H](CN)CC3)cc1O2 [Compound 4000c]
> 16 µg/mL | NC1CCCN(C(=O)c2ccc3c(c2)Nc2nc(=O)n(C4CCCNCC4)cc2O3)C1 (stereo not drawn) [Compound 891]
> 16 µg/mL | CC(=O)NCCOc1cccc2c1Nc1nc(=O)n(C3CCC(CN)CC3)cc1O2 (stereo not drawn) [Compound 1426]
< 16 µg/mL | N=C(N)NCC(=O)N1CCC(c2ccc3c(c2)Nc2nc(=O)n(C4CCCN(CCCN)CC4)cc2O3)CC1 (stereo not drawn) [Compound 832]
< 16 µg/mL | N=C(N)NCCCN[C@H]1CC[C@H](n2cc3c(nc2=O)Nc2cc(CCN4CCOCC4)ccc2O3)CC1 [Compound 956]
< 16 µg/mL | N=C(N)NCCCN1CCCC(n2cc3c(nc2=O)Nc2cc(C4CCN(C(=O)CN)CC4)ccc2O3)CC1 (stereo not drawn) [Compound 793]
> 16 µg/mL | NC[C@H]1CC[C@H](n2cc3c(nc2=O)Nc2c(OCCNC(=O)NCc4ccccc4)cccc2O3)CC1 [Compound 4002c]
